In series [1] the test system is RPE degeneration. Nature of the series: Alu RNA induced RPE degeneration in mice, fundus images and ZO-1 staining. The format is in vivo. The conditions noted are these: subretinal, WT mice (FIG. 26). The procedure:
FIGS. 25A and 25B. NLRC4 knockdown blocks Alu RNA (SEQ ID NO: 86) induced ASC oligomerization and RPE degeneration. Human RPE cell treated with siRNA target on NLRC4 (SMARTPOOL siRNA for NLRC4: CAACUGGGCUCCUCUGUAA; SEQ ID NO: 93) and NAIP (SMARTPOOL siRNA for NAIP: GUAAAGAGCUAUAUGGAUA; SEQ ID NO: 94), 24 hours later, treated with Alu RNA (SEQ ID NO: 86 at 100 pmol) FIG. 25A. […] The band of ASC oligomers was indicated by black arrow. […] The hyperdense areas due to the RPE degeneration in fundus images and ZO-1 disorganizations in RPE sheet are indicated by white arrows.
FIG. 26. […] Wilde type of C57/B6 mice were intravitreally injected with siRNA target on Ddx17 (siRNA for Ddx17: GGCUAGAUGUGGAAGAUGU; SEQ ID NO: 95), and two days later, Nlrc4^−/−, Naip1-6^−/−, mice and Ddx17 knockdown mice were subretinally injected with Alu RNA (SEQ ID NO: 86). […] The hyperdense areas due to the RPE degeneration in fundus images and ZO-1 disorganizations in RPE sheet are indicated by white arrows.
(§1) Next, we asked whether Alu RNA (SEQ ID NO: 86) also triggered NLRC4 inflammasome activation in human RPE cells. We performed immunofluorescence staining experiments to examine whether Alu RNA (SEQ ID NO: 86) can induce NLRC4 speck formation in human RPE cells. We noticed punctate structures resembling specks of NLRC4 in human RPE cells in response to Alu RNA (SEQ ID NO: 86) treatment (FIG. 24A). […] We further investigated downstream events of NLRC4 inflammasome activation by studying NLRC4-induced ASC oligomerization, a critical step involved in caspase-1 cleavage. NLRC4 siRNA, when co-administered with Alu RNA (SEQ ID NO: 86), blocked ASC oligomerization in vitro (FIG. 25A) and RPE degeneration in vivo (FIG. 25B).
We delivered Alu RNA (SEQ ID NO: 86) or Alu RNA (SEQ ID NO: 86)+siDDX17 subretinally in WT or NLRC4 KO or NAIP1-6 KO mice and examined for RPE degeneration using fundus photos and ZO-1 staining as described previously.

The subject of series [2] is NLRC4 phosphorylation (site S533). Kind of series: SINE RNA induced NLRC4 phosphorylation (S533) in BMDM, Western blot. In kind it is cell-based, mouse. The conditions noted are these: SINE RNAs each at 100 pmol, polyI:C 10 μg/ml (FIG. 1). The procedure:
FIG. 1. SINE RNA induced NLRC4 phosphorylation (site S533) in mice macrophage (BMDM). Mouse bone marrow derived macrophage (BMDM) were treated with SINE RNAs (Alu (SEQ ID NO: 86), B1 (SEQ ID NO: 87), and B2 (SEQ ID NO: 88), each at 100 pmol), and polyI:C (10 μg/ml). Phosphorylated Nlrc4 (p-Nlrc4) and total Nlrc4 (t-Nlrc4) were detected by Western blot. Actin is provided as a loading control. The p-NLRC4 bands were indicated by black arrow.
Previous studies have shown that NLRC4 inflammasome activation in response to Salmonella exposure requires two steps for its activation, phosphorylation on Ser533 residue of NLRC4 and NAIP mediated oligomerization of NLRC4. […] Moreover, treatment with SINE RNAs induced caspase-1 p20 cleavage, indicative of inflammasome activation (FIG. 2). For the subsequent experiments in this study, we used Alu RNA (SEQ ID NO: 86) as the stimulus to activate the NLRC4 inflammasome. To date, two kinases are reported to phosphorylate NLRC4 at S533: protein kinase C delta (PKCδ) and leucine rich repeat-containing kinase-2 (LRRK2). To explore the roles of these kinases in Alu RNA (SEQ ID NO: 86) induced NLRC4 phosphorylation, we pretreated BMDMs with pharmacological inhibitors of LRRK2 (GSK2578215A, GSK) and PKCδ (Rottlerin, Rot) respectively.
(In western blotting, separated proteins are transferred to a membrane and probed.)

For series [3], the system named is NLRC4. Nature of the series: Alu RNA induced NLRC4 protein oligomerization in BMDM, Tris-glycine native PAGE. The format is cell-based, mouse. The conditions noted are these: Alu RNA 100 pmol, indicated time points (FIG. 4). The procedure:
FIG. 4. Alu RNA (SEQ ID NO: 86) induced NLRC4 protein oligomerization. Mouse BMDM was treated with Alu RNA (SEQ ID NO: 86; 100 pmol) at the indicated time points. NLRC4 oligomers were detected by Tris-glycine native PAGE. Loading control show by Actin. […] The bands of oligomeric NLRC4 protein were indicated by black arrow.
The activated NLRC4 inflammasome undergoes oligomerization by assembling into high-molecular mass multiprotein complexes. We first investigated in situ assembling of NLRC4 and apoptosis speck (ASC) like protein complexes in response to SINE RNA treatment of BMDMs. Immunofluorescence studies show increased NLRC4 and ASC specks in SINE RNA-treated BMDMs compared to mock-treated cells (FIG. 3A). To assess NLRC4 inflammasome assembly, WT and NLRC4 KO BMDM cells were treated with Alu RNA (SEQ ID NO: 86). Disuccinimidyl suberate (DSS) cross-linked lysates were resolved using denaturing SDS-PAGE to detect ASC oligomers and cell lysates were resolved using native polyacrylamide gel electrophoresis (NATIVE-PAGE) to detect NLRC4 oligomerization. […] NLRC4/ASC oligomerization is essential for the cleavage of pro-caspase-1 into its active form p20 and IL-1β release.

In series [4] the test system is NLRC4. Nature of the series: Alu RNA induced NLRC4 oligomers in human RPE cells, native PAGE. The format is cell-based. The conditions noted are these: Alu RNA transfection vs mock (FIG. 24B).
Text: FIGS. 24A and 24B. Alu RNA (SEQ ID NO: 86) induced NLRC4 activation in human RPE cells. To test whether Alu RNA (SEQ ID NO: 86) induces NLRC4 activation in human RPE, we transfected human RPE with Alu RNA (SEQ ID NO: 86 at 100 pmol). FIG. 24A. Immunofluorescence staining on NLRC4 show Alu RNA (SEQ ID NO: 86) induced cytosolic NLRC4 punctate in hRPE cells. The NLRC4 aggregates induced by Alu RNA (SEQ ID NO: 86) are indicated by white arrows. FIG. 24B. Alu RNA (SEQ ID NO: 86) induced NLRC4 (p-NLRC4) phosphorylation and oligomerization. Loading control show by Actin. NLRC4 oligomers were detected by Tris-glycine native PAGE. […] The band of NLRC4 oligomers is indicated by black arrow.
as §1

With Alu RNA: human SINE RNA, SEQ ID NO: 86, in series [1], the “RPE degeneration induced by Alu RNA” value is listed as “induced RPE degeneration”. Besides, in series [2], the “NLRC4 phosphorylation on S533 in BMDMs” value is “induced”. Further, the “formation of NLRC4 oligomers, BMDM” value in series [3] is given as “induces the formation of NLRC4 oligomers”. Also, the “formation of NLRC4 oligomers, human RPE cells” value in series [4] was “induced the formation of NLRC4 oligomers”.
